Holding throughout (assay type): cell-based
In assay [1] the test system is Acanthamoeba castellanii trophozoites. Briefly: Activity against Acanthamoeba castellanii trophozoites.
A further assay concerns A549 cells. The assay can be described thus: Toxicity to human A549 cells.
For assay [2], the system named is Acanthamoeba castellanii (ATCC50370) cysts. The assay can be described thus: Encystation drug susceptibility / excystation viability assay, 30 day recovery, A. castellanii cysts. Particulars: ATCC50370, 720 h, read-out: A. castellanii 30 day MCC. How it is done: (§1) The trophozoites of Acanthamoeba were harvested by mechanical detachment and collected via centrifugation at 4000 rpm at 4° C. for 5 minutes. The trophozoites were washed in 10 mL of Neff's Encystment Media (NEM). NEM composition is 20 mM Tris-HCL [pH 8.8] (2.43 g/L), 100 mM KCL (7.46 g/L), 8 mM MgSO4 (962.96 mg/L), 0.4 mM CaCL2 58.81 mg/L) and 1 mM NaHCO3 (84.01 mg/L) (Neff et al. 1964). All reagents were bought from Sigma Aldrich. Centrifugation of the trophozoites was repeated to ensure any residual growth medium was removed. The pellet was resuspended in a final volume of 15 mL of NEM, cultured in 75 cm^2 corning tissue culture flasks and incubated vertically in a thermal shaker, shaken at 100 rpm at 37° C. for 72 hours to produce fully matured cysts. NEM was supplemented with 250 μg of penicillin/streptomycin. Fresh cysts were produced each time for any experimentation.
(§2) At 72 hours the cysts were harvested using a cell scraper and collected via centrifugation at 4000 rpm at 25° C. for 10 minutes. The cells were washed twice in 10 mL of HyClone™ water, Molecular Biology Grade, and centrifugation was repeated to ensure the removal of any residual NEM. The cell suspension was washed with 0.5% sodium dodecyl sulphate (SDS) to remove any remaining trophozoites and immature cysts. The fully mature cysts were further washed twice with 10 mL of HyClone™ water and 1% NEM, centrifugation was repeated to remove any residue of SDS. The concentration of mature cysts was determined using a haemocytometer and adjusted to 1×10^4 cysts/mL in NEM.
(§3) All test compounds were prepared as 5 mg/mL stock solutions in dimethylsulfoxide (DMSO). All compounds were diluted in NEM, serially diluted in 2-fold dilutions 6 or 11 times, yielding a screening concentration range of 1.56 μg/mL to 50 μg/mL or 48 ng/mL to 50 μg/mL with a final highest screening concentration of 1% DMSO.
(§4) Based on this, a strain specific test period and also a 30 day non-specific recovery time were considered. For the 30 day recovery period, the media was changed 5 times to ensure the contents of wells dis not evaporate and have an effect within the results of the assay.
(§5) 90 μL of 1×10^4 Cysts/ml and 10 μL of experimental compounds from the screening plates were produced according to the protocols above and combined into a Corning clear 96 well treated tissue culture plate. Control wells include cysts in non-drug treated, 1% DMSO, NEM (to be used for negative growth control), NEM Blank, PG blank and cysts in non-drug treated, 1% DMSO, PG (to excyst cells and to be used for positive growth control). The total well volume for all wells was 100 μL. The drug exposed plates were screened at 27° C. for 6 or 24 hours only. At the exposure time point the plates were centrifuged at 4000 rpm at 25° C. for 10 minutes and washed twice with phosphate-buffered saline (PBS) to remove any residual experimental compound.
(§6) Once the plate(s) underwent the Encystation drug susceptibility process, all wells except the negative growth control and NEM blank wells received PG growth medium. All plates were left to recover at 27° C. for the strain specific time period of 5, 9 or 11 days depending on the species of Acanthamoeba. At each of the strain specific time points the plates were removed from incubation and microscopically analysed (qualitatively) for the excystation process for the emergence of excysted viable trophozoites or residual cysts. The presence of excysted trophozoites indicated viable amoebae (non-cystistatic or cysticidal—no effect) and the absence of excystation was considered as cystistatic/cysticidal effects.

In assay [3] the test system is Acanthamoeba healyi cysts. The assay can be described thus: Encystation drug susceptibility / excystation viability assay, 30 day recovery, A. healyi cysts. The settings on record: 720 h, read-out: A. healyi 30 day MCC. How it is done: as §1, §2, §3, §4, §5, §6
Assay [4] has as its system Acanthamoeba culbertsoni (ATCC30171) cysts. The assay can be described thus: Encystation drug susceptibility / excystation viability assay, 30 day recovery, A. culbertsoni cysts. Particulars: ATCC30171, 720 h, read-out: A. culbertsoni 30 day MCC. How it is done:
as §1, §2, §3, §4, §5, §6

The test system of assay [5] is Balamuthia mandrillaris trophozoites. The assay can be described thus: Activity against Balamuthia mandrillaris trophozoites. The settings on record: Balamuthia mandrillaris, read-out: Balamuthia mandrillaris IC50. How it is done: Balamuthia mandrillaris trophozoites were thawed and grown in 10 ml of BM-3 medium. […] After autoclaving, complete BM-3 media was produced by the addition of 10% fetal bovine serum and 125 μg of penicillin/streptomycin antibiotics. The table describes all of the compounds and the activity against Balamuthia trophozoites compared to the activity for select Acanthamoeba trophozoites shown in Table 5.

[6] abbreviates: trophozoites, n = 2, Table 6, read-out: Acanthamoeba castellanii IC50.
Setting [7] is: human A549 cells, read-out: A549 cell IC50.
[8] abbreviates: minimum cysticidal concentration, no recovery up to 30 days.

Read-outs that look alike come from different tables or passages of the source.

Broadly, the IC50 is the point on the concentration scale where inhibition reaches its midpoint. As to `CCC(CC)NC(=N)c1ccc2nc(-c3ccc(Oc4ccc(-c5nc6ccc(C(=N)NC(CC)CC)cc6[nH]5)cc4)cc3)[nH]c2c1` [Compound T], the IC50 in assay [1] (setting [6]) came out at 1130 nM; in the assay with A549 cells (setting [7]), 31.4 µM; in assay [5] (trophozoites, n = 2) it was 140 nM. Besides, the MCC was found to be 11.4 µM in assay [2] (setting [8]), 7.61 µM in assay [3] (setting [8]) and 5.71 µM in assay [4] (setting [8]).

As for `CC(C)NC(=N)c1ccc2nc(-c3ccc(Oc4ccc(-c5nc6ccc(C(=N)NC(C)C)cc6[nH]5)c(Br)c4)cc3)[nH]c2c1` [M, 2-(2-Bromo-4-(4-(6-(N-isopropylcarbamimidoyl)-1H-benzo[d]imidazol-2-yl)phenoxy)phenyl)-N-isopropyl-1H-benzo[d]imidazole-6-carboximidamide], the IC50 in assay [1] (setting [6]) was determined as 390 nM; with A549 cells (setting [7]) it was 3.92 µM; in assay [5] (trophozoites, n = 2), 80 nM. For the same compound, the MCC was determined as 2.85 µM in assay [2] (setting [8]), 3.8 µM in assay [3] (setting [8]) and 5.7 µM in assay [4] (setting [8]).

Take `COc1cc(Oc2ccc(-c3nc4ccc(C(=N)NC(C)C)cc4[nH]3)c(Br)c2)ccc1-c1nc2ccc(C(=N)NC(C)C)cc2[nH]1` [N, 2-(2-Bromo-4-(4-(6-(N-isopropylcarbamimidoyl)-1H-benzo[d]imidazol-2-yl)-3-methoxyphenoxy)phenyl)-N-isopropyl-1H-benzo[d]imidazole-6-carboximidamide]: the IC50 in assay [1] (setting [6]) was 560 nM; in the assay with A549 cells (setting [7]) it was 3.92 µM; in assay [5] (trophozoites, n = 2) it was 120 nM. The MCC was determined as 9.2 µM in assay [2] (setting [8]), 5.52 µM in assay [3] (setting [8]) and 3.68 µM in assay [4] (setting [8]).

Regarding `CC(C)NC(=N)c1ccc2nc(-c3ccc(Oc4ccc(-c5nc6ccc(C(=N)NC(C)C)cc6[nH]5)cc4Br)cc3)[nH]c2c1` [O, 2-(3-Bromo-4-(4-(6-(N-isopropylcarbamimidoyl)-1H-benzo[d]imidazol-2-yl)phenoxy)phenyl)-N-isopropyl-1H-benzo[d]imidazole-6-carboximidamide], the IC50 stood at 670 nM in assay [1] (setting [6]); 3.71 µM in the assay on A549 cells (setting [7]); 130 nM in assay [5] (trophozoites, n = 2). In addition, the MCC in assay [2] (setting [8]), in assay [3] (setting [8]) and in assay [4] (setting [8]) was 11.4 µM in each case.

`CC(C)NC(=N)c1ccc2nc(-c3ccc(Oc4ccc(-c5nc6ccc(C(=N)NC(C)C)cc6[nH]5)c(Br)c4)c(Br)c3)[nH]c2c1` [Compound R, 2-(2-Bromo-4-(2-bromo-4-(6-(N-isopropylcarbamimidoyl)-1H-benzo[d]imidazol-2-yl)phenoxy)phenyl)-N-isopropyl-1H-benzo[d]imidazole-6-carboximidamide]: the IC50 amounted to 550 nM in assay [1] (setting [6]); 4.18 µM with A549 cells (setting [7]); 200 nM in assay [5] (trophozoites, n = 2). In addition, the MCC came to 2.66 µM in assay [2] (setting [8]), 3.56 µM in assay [3] (setting [8]) and 2.66 µM in assay [4] (setting [8]).

For `CC(C)NC(=N)c1ccc2nc(-c3ccc(Oc4ccc(-c5nc6ccc(C(=N)NC(C)C)cc6[nH]5)c(Cl)c4)cc3Cl)[nH]c2c1` [L, 2-2′-(Oxybis(2-chloro-4,1-phenylene))bis(N-isopropyl-3H-benzo[d]imidazole-6-carboximidamide)], the IC50 in assay [1] (setting [6]) was 390 nM; in the assay with A549 cells (setting [7]), 4.17 µM; in assay [5] (trophozoites, n = 2), 80 nM. Moreover, the MCC in assay [2] (setting [8]), in assay [3] (setting [8]) and in assay [4] (setting [8]) was 2.88 µM each time.

With `CC(C)NC(=N)c1ccc2nc(-c3ccc(Oc4ccc(-c5nc6ccc(C(=N)NC(C)C)cc6[nH]5)c(Br)c4)cc3Br)[nH]c2c1` [Compound D, 2,2′-(Oxybis(2-bromo-4,1-phenylene))bis(N-isopropyl-1H-benzo[d]imidazole-6-carboximidamide)], the IC50 is 310 nM in assay [1] (read-out: A. cactellanii Trophozoite IC50); 310 nM in assay [1] (read-out: Acanthamoeba castellanii IC50); 4.17 µM in the assay with A549 cells (Homo sapiens, A549, read-out: A549 cell IC50); 100 nM in assay [5]. Further, the results for the MCC in assay [2], in assay [3] and in assay [4] were 3.4 µM, 3.4 µM and 1.27 µM, respectively.
